Test results as given in patent US20250074869A1, “AMINO-COMBRETASTATIN DERIVATIVE AND USE THEREOF” (priority 2020, published 2025).
Structures can show the parent of a compound that is named as a salt.

Key:
[1] = Acute toxicity study in animals (oral LD50); conditions: mouse, in vivo, male ICR mice, intragastric administration, observed 14 days, hydrochloride salts
Description: Male ICR mice weighed 23±2 g, clean grade, were selected. The route of administration was intragastric (ig) administration, which is consistent with the intended oral route for clinical use.
Mice were randomly divided into 8 groups by weight: the blank control group, Example 1 group, Example 5 group, Example 11 group, Example 12 group, Example 13 group, Example 14 group and control group. Among these, the control group received amino-combretastatin serinamide hydrochloride as the control (hereinafter referred to as control).
Preparation of the compounds used in the example groups: The compounds obtained in Example 1, Example 3. Example 4. Example 5. Example 6. Example 7. Example 8. Example 9. Example 10. Example 11. Example 12, Example 13 and Example 14 were prepared into hydrochloride salts according to the method disclosed in Example 2.
Pre-treatment: […] were deprived of food but not water for 12 h before the study. and randomized into groups of 10 by body weight. The treatment groups were intragastrically administered once at 0.25 mL/10 g body weight, and the water control group received an equivalent amount of distilled water through intragastric administration. The LD100 value (the amount for 100% death), LD0 (the amount for 0 death) and the corresponding range r value between the dose groups were calculated, and LD50 was determined.
Study procedures: 160 mice were randomized into 8 groups of 20 mice by body weight. After deprivation of food but not water for 12 h before the study, each group was intragastrically given the compound once at 0.3 mL/10 g body weight. Since no death was observed after 12 h, the second dose was given. The control group received equivalent volumes of water. The daily dose of each group was calculated; the control group received equal volumes of water and was subjected to an acute toxicity study for observation and the body weight of the mice was recorded daily for 14 days.

[2] = system: human liver cancer cells Bel-7402; assay: Efficacy study in nude mouse with xenograft tumor, Bel-7402; assay type: in vivo; conditions: BALB/cA-nude mice, subcutaneous xenograft, 50 mg/kg intragastric once daily for 21 days, dosed as hydrochloride; for inhibition in vivo at 50 mg/kg: Mus musculus, Bel-7402, sc, 504 h, read-out: % tumor inhibition (D21) Bel-7402
Protocol: (§1) BALB/cA-nude mice aged 6 to 7 weeks were purchased from Shanghai Slac Laboratory Animal Co., Ltd. The nude mice were subcutaneously grafted with human liver cancer cells Bel-7402, colon cancer cells HT-29, gastric cancer cells SGC-7901 or non-small cell lung cancer cells A549. After the tumor grew to 100 to 250 mm^3, the animals were randomized (d0). The tumor volumes and body weights were measured twice or thrice a week, and the data were recorded. Tumor volume (V) was calculated as follows:
(§2) [formula] • wherein a and b represent length and width, respectively; T and C are the tumor volumes at the end of study; T0 and C0 are the tumor volumes at the start of study.
(§3) All samples were diluted to the desired concentration with 50% PEG400 in distilled water. The regimen was once daily for 21 days at 50 mg/kg mouse body weight through intragastric administration, and 50 mg/kg for the control. The compounds obtained in Examples 1, 3, 4, 5, 6, 7, 8, 9, 10, 11, 12, 13 and 14 and the control were prepared into corresponding hydrochloride as the dosing compounds according to the method disclosed in Example 2 to investigate their efficacy on human liver cancer cell Bel-7402, colon cancer cell HT-29, gastric cancer cell SGC-7901 or non-small cell lung cancer cell A549 xenograft tumors in nude mice and to compare the compounds with the control (prepared as in Example 16).

[3] = system: colon cancer cells HT-29; assay: Efficacy study in nude mouse with xenograft tumor, HT-29; assay type: in vivo, human; conditions: BALB/cA-nude mice, subcutaneous xenograft, 50 mg/kg intragastric once daily for 21 days, dosed as hydrochloride; for inhibition in vivo at 50 mg/kg: Mus musculus, HT-29, sc, 504 h, read-out: % tumor inhibition (D21) HT-29
Protocol: as §1, §2, §3

[4] = system: gastric cancer cells SGC-7901; assay: Efficacy study in nude mouse with xenograft tumor, SGC-7901; assay type: in vivo, human; conditions: BALB/cA-nude mice, subcutaneous xenograft, 50 mg/kg intragastric once daily for 21 days, dosed as hydrochloride; for inhibition in vivo at 50 mg/kg: Mus musculus, SGC-7901, sc, 504 h, read-out: % tumor inhibition (D21) SGC-7901
Protocol: as §1, §2, §3

[5] = system: non-small cell lung cancer cells A549; assay: Efficacy study in nude mouse with xenograft tumor, A549; assay type: in vivo, human; conditions: BALB/cA-nude mice, subcutaneous xenograft, 50 mg/kg intragastric once daily for 21 days, dosed as hydrochloride; for inhibition in vivo at 50 mg/kg: Mus musculus, A549, sc, 504 h, read-out: % tumor inhibition (D21) A549
Protocol: as §1, §2, §3

| SMILES | LD50 at 14 days [1] [mg/kg] | inhibition in vivo at 50 mg/kg [2] [%] | inhibition in vivo at 50 mg/kg [3] [%] | inhibition in vivo at 50 mg/kg [4] [%] | inhibition in vivo at 50 mg/kg [5] [%] | also measured |
| --- | --- | --- | --- | --- | --- | --- |
| CCOc1ccc(/C=C\c2cc(OC)c(OC)c(OC)c2)cc1NC(=O)CCNCC(OC)OC [Hydrochloride of Example 14] | 1000 | – | – | – | – | – |
| CCOc1ccc(/C=C\c2cc(OC)c(OC)c(OC)c2)cc1NC(=O)CCN(CC)CC [Example 4, (Z)-1-(3,4,5-trimethoxyphenyl)-2-((3-(bis(2-ethyl)amino)propionamide)-4-ethoxyphenyl)ethylene] | – | 90 | 91 | 76 | 67 | – |
| CCCN(CCC)CCC(=O)Nc1cc(/C=C\c2cc(OC)c(OC)c(OC)c2)ccc1OCC(F)(F)F [Example 7, (Z)-1-(3,4,5-trimethoxyphenyl)-2-((3-(bis(2-n-propyl)amino)propionamide)-4-trifluoroethoxyphenyl) ethylene] | – | 81 | 79 | 65 | 66 | – |
| CCCCN(CCCC)CCC(=O)Nc1cc(/C=C\c2cc(OC)c(OC)c(OC)c2)ccc1OC [Hydrochloride of Example 6] | – | – | – | – | – | LD50 [1]: 900 mg/kg |
| CCCN(CCC)CCC(=O)Nc1cc(/C=C\c2cc(OC)c(OC)c(OC)c2)ccc1OCC [Hydrochloride of Example 1, (Z)-1-(3,4,5-trimethoxyphenyl)-2-((3-(bis(2-n-propyl)amino)propionamide)-4-ethoxyphenyl)ethylene hydrochloride] | 1200 | – | – | – | – | – |
| CCCN(CCC)CCC(=O)Nc1cc(/C=C\c2cc(OC)c(OC)c(OC)c2)ccc1OC(F)F [Hydrochloride of Example 8] | 1100 | – | – | – | – | – |
| CCCN(CCC)CCC(=O)Nc1cc(/C=C\c2cc(OC)c(OC)c(OC)c2)ccc1OCC [Example 1] | – | 92 | 93 | 82 | 69 | – |
| CCCCN(CCCC)CCC(=O)Nc1cc(/C=C\c2cc(OC)c(OC)c(OC)c2)ccc1OCC(F)(F)F [Example 9, (Z)-1-(3,4,5-trimethoxyphenyl)-2-((3-(bis(2-n-butyl)amino)propionamide)-4-trifluoroethoxyphenyl)ethylene] | – | 79 | 85 | 80 | 61 | – |
| CCOc1ccc(/C=C\c2cc(OC)c(OC)c(OC)c2)cc1NC(=O)CCNCC(F)F [Example 13, (Z)-1-(3,4,5-trimethoxyphenyl)-2-((3-(2,2-difluoroethylamino)propionamide)-4-ethoxyphenyl)ethylene] | – | 82 | 77 | 72 | 63 | – |
| CCOc1ccc(/C=C\c2cc(OC)c(OC)c(OC)c2)cc1NC(=O)CCN(CC)CC [Hydrochloride of Example 4] | 1100 | – | – | – | – | – |
| CCC(C)N(CCC(=O)Nc1cc(/C=C\c2cc(OC)c(OC)c(OC)c2)ccc1OC(F)F)C(C)CC (stereo not shown) [Example 10, (Z)-1-(3,4,5-trimethoxyphenyl)-2-((3-(bis(2-n-butyl)amino)propionamide)-4-difluoromethoxyphenyl)ethylene] | – | – | – | – | – | % tumor inhibition (D21) Bel-7402 [2]: 86%; % tumor inhibition (D21) HT-29 [3]: 81%; % tumor inhibition (D21) SGC-7901 [4]: 73%; % tumor inhibition (D21) A549 [5]: 60% |
| COc1ccc(/C=C\c2cc(OC)c(OC)c(OC)c2)cc1NC(=O)CCN(CCO)CCO [Example 12, (Z)-1-(3,4,5-trimethoxyphenyl)-2-((3-(bis(2-hydroxyethyl)amino)propionamide)-4-methoxyphenyl)ethylene] | – | 79 | 79 | 77 | 58 | – |
| CCCCN(CCCC)CCC(=O)Nc1cc(/C=C\c2cc(OC)c(OC)c(OC)c2)ccc1OCC [Hydrochloride of Example 5] | 1200 | – | – | – | – | – |
| CCCN(CCC)CCC(=O)Nc1cc(/C=C\c2cc(OC)c(OC)c(OC)c2)ccc1OC [Example 3, (Z)-1-(3,4,5-trimethoxyphenyl)-2-((3-(bis(2-n-propyl)amino)propionamide)-4-methoxyphenyl)ethylene] | – | 89 | 88 | 78 | 65 | – |
| CCOc1ccc(/C=C\c2cc(OC)c(OC)c(OC)c2)cc1NC(=O)CCNCC(OC)OC [Example 14, (Z)-1-(3,4,5-trimethoxyphenyl)-2-((3-(2,2-dimethoxyethylamino)propionamide)-4-ethoxyphenyl)ethylene] | – | 82 | 71 | 80 | 66 | – |
| CCCCN(CCCC)CCC(=O)Nc1cc(/C=C\c2cc(OC)c(OC)c(OC)c2)ccc1OCC [Example 5, (Z)-1-(3,4,5-trimethoxyphenyl)-2-((3-(bis(2-n-butyl)amino)propionamide)-4-ethoxyphenyl)ethylene] | – | 88 | 82 | 80 | 63 | – |
| CCCN(CCC)CCC(=O)Nc1cc(/C=C\c2cc(OC)c(OC)c(OC)c2)ccc1OC(F)F [Example 8, (Z)-1-(3,4,5-trimethoxyphenyl)-2-((3-(bis(2-n-propyl)amino)propionamide)-4-difluoromethoxyphenyl)ethylene] | – | 90 | 88 | 71 | 67 | – |
| CCCCN(CCCC)CCC(=O)Nc1cc(/C=C\c2cc(OC)c(OC)c(OC)c2)ccc1OCC(F)(F)F [Hydrochloride of Example 9] | 1000 | – | – | – | – | – |
| COc1ccc(/C=C\c2cc(OC)c(OC)c(OC)c2)cc1NC(=O)CCN(CCO)CCO [Hydrochloride of Example 12] | – | – | – | – | – | LD50 [1]: 1100 mg/kg |
| CCCN(CCC)CCC(=O)Nc1cc(/C=C\c2cc(OC)c(OC)c(OC)c2)ccc1OC [Hydrochloride of Example 3] | 1000 | – | – | – | – | – |
| CCOc1ccc(/C=C\c2cc(OC)c(OC)c(OC)c2)cc1NC(=O)CCNCC(F)F [Hydrochloride of Example 13] | – | – | – | – | – | LD50 [1]: 1000 mg/kg |
| CCOc1ccc(/C=C\c2cc(OC)c(OC)c(OC)c2)cc1NC(=O)CCN(CCO)CCO [Example 11, (Z)-1-(3,4,5-trimethoxyphenyl)-2-((3-(bis(2-hydroxyethyl)amino)propionamide)-4-ethoxyphenyl)ethylene] | – | 88 | 89 | 65 | 63 | – |
| CCCN(CCC)CCC(=O)Nc1cc(/C=C\c2cc(OC)c(OC)c(OC)c2)ccc1OCC(F)(F)F [Hydrochloride of Example 7] | 1200 | – | – | – | – | – |
| CCOc1ccc(/C=C\c2cc(OC)c(OC)c(OC)c2)cc1NC(=O)CCN(CCO)CCO [Hydrochloride of Example 11] | 1100 | – | – | – | – | – |
| CCCCN(CCCC)CCC(=O)Nc1cc(/C=C\c2cc(OC)c(OC)c(OC)c2)ccc1OC [Example 6, (Z)-1-(3,4,5-trimethoxyphenyl)-2-((3-(bis(2-n-butyl)amino)propionamide)-4-methoxyphenyl)ethylene] | – | 89 | 90 | 81 | 62 | – |
